Source: BindingDB's records for doi:10.1074/jbc.M113.496463 (National Institutes of Health, National Institutes of …, 2013)
“And” between values parts separate entries of the source, which are not always exact repeats. Equal entries are not always repeated.

What was measured:
[1] = target: T1, Fanconi anemia group J protein (Homo sapiens, UniProt Q9BX63); assay: Helicase Assays; conditions: pH 8
T1 sequence (Q9BX63 whole entry): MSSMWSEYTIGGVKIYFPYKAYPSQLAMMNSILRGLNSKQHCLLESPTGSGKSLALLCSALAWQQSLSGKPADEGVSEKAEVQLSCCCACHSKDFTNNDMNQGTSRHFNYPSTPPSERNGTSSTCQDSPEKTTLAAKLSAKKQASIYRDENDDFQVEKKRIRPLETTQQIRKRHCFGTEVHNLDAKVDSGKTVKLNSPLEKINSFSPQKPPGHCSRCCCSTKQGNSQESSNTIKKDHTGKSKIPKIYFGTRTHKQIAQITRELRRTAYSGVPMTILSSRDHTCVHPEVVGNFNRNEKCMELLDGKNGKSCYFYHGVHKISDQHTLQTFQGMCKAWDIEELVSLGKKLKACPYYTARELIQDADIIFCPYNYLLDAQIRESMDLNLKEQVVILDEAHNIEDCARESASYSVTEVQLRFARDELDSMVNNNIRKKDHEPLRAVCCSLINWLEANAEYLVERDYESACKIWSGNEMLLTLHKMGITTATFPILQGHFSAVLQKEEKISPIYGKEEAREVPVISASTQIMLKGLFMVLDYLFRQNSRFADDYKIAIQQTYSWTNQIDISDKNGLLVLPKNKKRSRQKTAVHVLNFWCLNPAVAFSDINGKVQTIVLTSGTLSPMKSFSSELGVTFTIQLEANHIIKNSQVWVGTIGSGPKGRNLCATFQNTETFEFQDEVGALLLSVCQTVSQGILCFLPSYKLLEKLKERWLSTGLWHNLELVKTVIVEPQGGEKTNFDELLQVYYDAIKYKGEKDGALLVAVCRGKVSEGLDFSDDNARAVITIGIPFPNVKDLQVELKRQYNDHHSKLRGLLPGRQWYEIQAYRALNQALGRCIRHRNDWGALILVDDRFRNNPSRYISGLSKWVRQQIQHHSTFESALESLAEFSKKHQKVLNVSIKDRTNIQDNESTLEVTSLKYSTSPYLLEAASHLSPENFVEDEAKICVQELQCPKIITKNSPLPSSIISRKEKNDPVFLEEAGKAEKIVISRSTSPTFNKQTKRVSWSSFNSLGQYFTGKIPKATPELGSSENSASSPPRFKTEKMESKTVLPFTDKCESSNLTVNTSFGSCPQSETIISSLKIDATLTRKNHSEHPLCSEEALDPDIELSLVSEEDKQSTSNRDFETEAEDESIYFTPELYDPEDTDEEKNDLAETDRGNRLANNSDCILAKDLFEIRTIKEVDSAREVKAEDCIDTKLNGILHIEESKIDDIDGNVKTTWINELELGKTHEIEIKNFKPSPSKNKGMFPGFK
Procedure: (§1) Standard helicase reaction mixtures (20μl) containing 5 fmol of the indicated TP-G4 or OX-1-G2' DNA substrates or forked duplex DNA substrate (0.25 nM DNA substrate concentration), 1mM ATP, and the indicated concentrations of the specified helicase were as previously described for FANCJ [Wu et al., Mol. Cell. Biol., 28:4116-4128] and DDX11 [Wu et al., J. Biol. Chem., 287:1007-1021]. Helicase reactions for XPD and DinG were performed in buffer that contained 20mM Tris-HCl (pH 8.0), 10mM KCl, 1mM dithiothreitol, 5mM MgCl2, and 100 μg/ml BSA. Reactions were performed at 37 °C for 15 min in the presence of 1 mM ATP, the DNA substrates mentioned above, and the indicated helicase protein concentrations. Forthe unimolecular Poly(A) Zic1-G4 DNA substrate, helicase reactions were performed in reaction buffer containing a 20-fold excess of peptide-nucleic acid complementary oligonucleotide [Giri et al., Nucleic Acids Res., 39:7161-7178]. G4 helicase reactions were terminated by th

[2] = target: T2, ATP-dependent DNA helicase DinG (Escherichia coli (strain K12), UniProt P27296); assay: Helicase Assays; conditions: pH 8
T2 sequence (P27296 whole entry): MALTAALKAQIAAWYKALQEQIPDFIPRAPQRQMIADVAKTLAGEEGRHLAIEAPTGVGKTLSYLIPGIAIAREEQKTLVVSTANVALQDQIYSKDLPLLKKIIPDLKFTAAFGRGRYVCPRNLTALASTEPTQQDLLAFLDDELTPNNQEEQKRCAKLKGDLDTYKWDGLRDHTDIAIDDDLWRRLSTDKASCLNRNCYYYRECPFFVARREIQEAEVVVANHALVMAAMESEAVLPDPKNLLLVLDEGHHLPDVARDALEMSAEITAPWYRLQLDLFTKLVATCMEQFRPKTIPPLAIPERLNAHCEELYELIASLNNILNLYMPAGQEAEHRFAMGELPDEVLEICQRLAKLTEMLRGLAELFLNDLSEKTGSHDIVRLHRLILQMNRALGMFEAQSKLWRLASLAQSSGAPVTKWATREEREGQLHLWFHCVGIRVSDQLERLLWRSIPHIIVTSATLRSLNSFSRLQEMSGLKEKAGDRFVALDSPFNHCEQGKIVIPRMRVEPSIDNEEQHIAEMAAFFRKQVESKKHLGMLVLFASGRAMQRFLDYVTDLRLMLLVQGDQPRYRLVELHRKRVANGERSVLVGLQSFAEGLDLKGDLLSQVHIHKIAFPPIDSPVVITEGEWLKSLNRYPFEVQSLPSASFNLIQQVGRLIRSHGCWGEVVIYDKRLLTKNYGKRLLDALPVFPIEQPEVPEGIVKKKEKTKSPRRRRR
Procedure: as §1

C[n+]1ccc(-c2c3nc(c(-c4cc[n+](C)cc4)c4ccc([nH]4)c(-c4cc[n+](C)cc4)c4nc(c(-c5cc[n+](C)cc5)c5ccc2[nH]5)C=C4)C=C3)cc1
IC50 [1]: 2300 nM and 2900 nM and 4900 nM
IC50 [2]: 1100 nM and 1200 nM

C[n+]1cc(NC(=O)c2ccc3ccc4ccc(C(=O)Nc5cc6ccccc6[n+](C)c5)nc4c3n2)cc2ccccc21
IC50 [2]: 50 nM and 130 nM

Cc1oc2nc1-c1nc(co1)-c1nc(co1)-c1nc(co1)-c1nc(co1)-c1nc(co1)C1=NC(CS1)c1nc-2c(C)o1 (stereo unspecified) [Telomestatin (TMS)]
IC50 [1]: 2.2 nM and 1.9 nM and 2 nM
IC50 [2]: 1.5 nM and 1 nM

C[n+]1cccc2cc(NC(=O)c3ccc4ccc5ccc(C(=O)Nc6ccc7c(ccc[n+]7C)c6)nc5c4n3)ccc21 [Phen-DC6]
IC50 [2]: 60 nM and 55 nM
